Assay results published in patent publication US20230128114A1, “METHODS AND COMPOSITIONS FOR TREATING OR PREVENTING AN INFLAMMATORY CONDITION” (priority 2020, published 2023).

Columns and labels:
LPS-induced sepsis [1] = assay: LPS-induced sepsis in mice, intraperitoneal administration: serum immune marker panel (Luminex/ELISA); assay type: in vivo, C57BL/6 mice
Procedure: (§1) Male C57BL/6 mice weighing 10-20 g were used. Vehicle and active agents (i.e., CBD and hydroxychloroquine) alone or in combination were administered intraperitoneally (IP) (Table 4) or orally (Table 5) at 1 hour before LPS (100 μg/100 μL/mouse) injected intravenously (IV). At 2 hours after LPS injection, blood was collected from all mice by cardiac puncture, sera processed and assayed for biomarkers using either the Th17-plex for IL-1β, IL-2, IL-10, IL-12 (p70), IFN-γ and TNF-α by Luminex, plus IL-6 and D-dimer by ELISA, or the 23-plex for IL-1α, IL-1β, IL-2, IL-3, IL-4, IL-5, IL-6, IL-9, IL-10, IL-12(p40), IL-12(p70), IL-13, IL-17A, Eotaxin, G-CSF, GM-CSF, IFN-γ, KC, MCP-1(MCAF), MIP-1α, MIP-1β, RANTES, and TNF-α by Luminex, plus IL-6 by ELISA. ANOVA followed by Dunnett's test was applied for comparison between vehicle and treatment groups. p<0.05 is considered significant.

LPS-induced sepsis [2] = assay: LPS-induced sepsis in mice, oral administration: serum 23-plex immune marker panel; assay type: in vivo, C57BL/6 mice
Procedure: as §1

[3] = test system: LPS-induced production of inflammatory cytokines; assay: LPS-induced sepsis in mice: synergy analysis (relative inhibition of cytokine release, Excess over Bliss); assay type: in vivo, C57BL/6 mice; conditions: for IFN-γ, relative inhibition of cytokine release / IL-1β, relative inhibition of cytokine release / IL-6, relative inhibition of cytokine release / IL-12(p70), relative inhibition of cytokine release / TNF-α, relative inhibition of cytokine release: HCQ 100 mg/kg, alone or combined, observed
Procedure: as §1
(§2) For synergy analysis, data were baseline subtracted using the cytokine levels of sham treated mice (i.e., no LPS injection), before normalising the values for each cytokine relative to maximum values across the groups. The normalised values were used to calculate the relative inhibition where a value of 1 represents complete inhibition and a value of 0 represents no inhibition. Synergy was calculated using the statistical methods described elsewhere herein.
(§3) Drug synergy was determined using the Bliss Independence method where the predicted effect of the drug combination is calculated using the equation: […]

[4] = test system: LPS-induced pulmonary inflammation; assay: LPS-induced pulmonary inflammation: BALF cytokines, synergy analysis; assay type: in vivo, C57BL/B6 mice; conditions: HCQ 25 mg/kg, alone or combined, observed; for IL-1β, relative inhibition of cytokine release (BALF) / MCP-1, relative inhibition of cytokine release (BALF) / TNF-α, relative inhibition of cytokine release (BALF): CBD 1 mg/kg; for CXCL-1, relative inhibition of cytokine release (BALF): CBD 10 mg/kg
Procedure: (§4) Male C57BL/B6 mice weighing 10-20 g were used. Vehicle and active agents (i.e., CBD and hydroxychloroquine) alone or in combination were administered intraperitoneally (IP) at 1 hour before LPS (˜80 mg/kg) was administered intratracheally. 24 hours after LPS injection, mice were anaesthetized with pentoparbital and 0.5 mL of PBS was administered twice through a tracheal cannula after which approximately 0.6 mL of broncheoalveolar lavage fluid (BALF) was obtained. The BALF was assayed for IL-1β, TNF-α, MCP-1(MCAF) and CXCL-1 by Luminex. ANOVA followed by Dunnett's test was applied for comparison between vehicle and treatment groups. p<0.05 was considered significant.
as §2, §3

[5] = test system: LPS-induced pulmonary inflammation; assay: LPS-induced pulmonary inflammation: BALF white blood cell count; assay type: in vivo, C57BL/B6 mice; conditions: CBD 10 mg/kg, HCQ 2.5 mg/kg, alone or combined
Procedure: as §4
BALF collected from mice were also analysed for white blood cell (WBC) count using an automatic haematology analyser. Cell counts were normalised using sham treated mice, and analysed relative to the highest values across the groups (Table 27).

[6] = test system: LPS-induced pulmonary inflammation; assay: LPS-induced pulmonary inflammation: lung histopathology lesion score; assay type: in vivo, C57BL/B6 mice
Procedure: as §4
In a separate test group of animals with pulmonary inflammation induced as detailed above, lungs were harvested at termination (five lobes per lung) and fixed in 10% neutral buffered formalin for histopathology. Samples were sectioned at 4-6 μm and stained with hematoxylin and eosin (H&E) to examine inflammatory lesions as described by Shackleford et al. (2002, Toxicologic Pathology, 30(1): 93-96). Briefly, a score of 0 corresponds to not present, and a score of 5 indicates a severe/high number of lesions. Scores were averaged across lobes for each animal and then across animals for each treatment group.

[7] = test system: LPS-induced pulmonary inflammation; assay: LPS-induced pulmonary inflammation: BALF cytokines, synergy analysis; assay type: in vivo, C57BL/B6 mice; conditions: CBD 1 mg/kg, HCQ 25 mg/kg, alone or combined; observed
[8] = hydroxychloroquine 1, 5, 10, 25, 50 and 100 mg/kg IP
[9] = hydroxychloroquine 50 and 100 mg/kg IP
[10] = hydroxychloroquine 20 mg/kg PO alone
[11] = CBD 10 mg/kg, HCQ 25 mg/kg, alone or combined, pulmonary lesion score
[12] = CBD 1, 5, 10, 25, 50 and 100 mg/kg IP
[13] = CBD 10 mg/kg alone, 1 = complete inhibition

CCN(CCO)CCCC(C)Nc1ccnc2cc(Cl)ccc12 (stereo not drawn) [HCQ]
D-dimer level vs vehicle group (LPS-induced sepsis [1]; [8]): dose-dependent increase
IL-10 level vs vehicle group (LPS-induced sepsis [1]; [8]): significant (p<0.05) increase
IFN-γ level vs vehicle group (LPS-induced sepsis [1]; [9]): moderate decrease
IL-1β level vs vehicle group (LPS-induced sepsis [1]; [9]): significant (p<0.05) decreases
IL-2 level vs vehicle group (LPS-induced sepsis [1]; [9]): significant (p<0.05) decreases
IL-12(p70) level vs vehicle group (LPS-induced sepsis [1]; [9]): moderate decrease
TNF-α level vs vehicle group (LPS-induced sepsis [1]; [9]): moderate decrease
Effect on biomarker levels (LPS-induced sepsis [2]; hydroxychloroquine 2 mg/kg PO alone): little or no effect
LPS-induced IL-1α release vs vehicle group (LPS-induced sepsis [2]; [10]): moderate suppression
LPS-induced IL-1β release vs vehicle group (LPS-induced sepsis [2]; [10]): moderate suppression
LPS-induced IL-2 release vs vehicle group (LPS-induced sepsis [2]; [10]): moderate suppression
LPS-induced IL-4 release vs vehicle group (LPS-induced sepsis [2]; [10]): moderate suppression
LPS-induced IL-5 release vs vehicle group (LPS-induced sepsis [2]; [10]): moderate suppression
LPS-induced IL-9 release vs vehicle group (LPS-induced sepsis [2]; [10]): moderate suppression
IFN-γ, relative inhibition of cytokine release ([3]; CBD 10 mg/kg): 0.74
IL-1β, relative inhibition of cytokine release ([3]; CBD 10 mg/kg): 0.01
IL-6, relative inhibition of cytokine release ([3]; CBD 10 mg/kg): 0.22
IL-12(p70), relative inhibition of cytokine release ([3]; CBD 10 mg/kg): 0.72
TNF-α, relative inhibition of cytokine release ([3]; CBD 10 mg/kg): 0.55
IL-6, relative inhibition of cytokine release ([3]; CBD 25 mg/kg): 0.22
Relative inhibition of IFN-γ release in vivo ([3]; HCQ 25 mg/kg alone): 0.57
Relative inhibition of IL-12(p70) release in vivo ([3]; HCQ 25 mg/kg alone): 0.56
Relative inhibition of TNF-α release in vivo ([3]; HCQ 25 mg/kg alone): 0.33
Relative inhibition of IL-6 release in vivo ([3]; HCQ 25 mg/kg alone (Table 21)): 0.17
Relative inhibition of IL-6 release in vivo ([3]; HCQ 25 mg/kg alone (Table 23)): 0.17
IL-1β, relative inhibition of cytokine release (BALF) [4]: 0.20
MCP-1, relative inhibition of cytokine release (BALF) [4]: 0.09
TNF-α, relative inhibition of cytokine release (BALF) [4]: 0.14
CXCL-1, relative inhibition of cytokine release (BALF) [4]: 0.35
Relative reduction in white blood cell counts: Neutrophil [5]: 0.10
Relative reduction in white blood cell counts: WBC [5]: 0.11
Relative reduction in lesion score [6, 11]: 0.37
Relative reduction in lesion score ([6]; HCQ 2.5 mg/kg): 0.21
IL-6, relative inhibition of cytokine release (BALF) [7]: 0.08

C=C(C)[C@@H]1CCC(C)=C[C@H]1c1c(O)cc(CCCCC)cc1O [CBD, cannabidiol]
IFN-γ level vs vehicle group (LPS-induced sepsis [1]; CBD 5 mg/kg IP): Moderate reductions
IFN-γ level vs vehicle group (LPS-induced sepsis [1]; CBD 10 mg/kg IP): moderate reduction
IL-1β level vs vehicle group (LPS-induced sepsis [1]; CBD 10 mg/kg IP): moderate reduction
IL-2 level vs vehicle group (LPS-induced sepsis [1]; CBD 10 mg/kg IP): moderate reduction
IL-12(p70) level vs vehicle group (LPS-induced sepsis [1]; CBD 10 mg/kg IP): moderate reduction
TNF-α level vs vehicle group (LPS-induced sepsis [1]; CBD 10 mg/kg IP): moderate reduction
IFN-γ level vs vehicle group (LPS-induced sepsis [1]; CBD 25 mg/kg IP): Moderate reductions
TNF-α level vs vehicle group (LPS-induced sepsis [1]; CBD 25 mg/kg IP): Moderate reductions
IL-1β level vs vehicle group (LPS-induced sepsis [1]; CBD 100 mg/kg IP): significant (p<0.05) increase
IL-10 level vs vehicle group (LPS-induced sepsis [1]; CBD 100 mg/kg IP): significant (p<0.05) increase
LPS-induced D-dimer level vs vehicle control (LPS-induced sepsis [1]; [12]): dose-dependent increase
LPS-induced IL-1β level vs vehicle control (LPS-induced sepsis [1]; [12]): dose-dependent increase
LPS-induced IL-10 level vs vehicle control (LPS-induced sepsis [1]; [12]): dose-dependent increase
Shape of dose response in the reduction of LPS-induced cytokine levels (LPS-induced sepsis [1]; CBD 1-100 mg/kg IP): bell-shaped dose response curve
Effect on biomarker levels (LPS-induced sepsis [2]; CBD 1 mg/kg PO alone): little or no effect
LPS-induced IL-1α release vs vehicle group (LPS-induced sepsis [2]; CBD 10 mg/kg PO alone): moderate suppression
LPS-induced IL-1β release vs vehicle group (LPS-induced sepsis [2]; CBD 10 mg/kg PO alone): moderate suppression
LPS-induced IL-2 release vs vehicle group (LPS-induced sepsis [2]; CBD 10 mg/kg PO alone): moderate suppression
LPS-induced IL-4 release vs vehicle group (LPS-induced sepsis [2]; CBD 10 mg/kg PO alone): moderate suppression
LPS-induced IL-5 release vs vehicle group (LPS-induced sepsis [2]; CBD 10 mg/kg PO alone): moderate suppression
LPS-induced IL-9 release vs vehicle group (LPS-induced sepsis [2]; CBD 10 mg/kg PO alone): moderate suppression
Relative inhibition of IFN-γ release in vivo [3, 13]: 0.00
Relative inhibition of IL-6 release in vivo [3, 13]: 0.14
Relative inhibition of IL-12(p70) release in vivo [3, 13]: 0.00
Relative inhibition of TNF-α release in vivo [3, 13]: 0.00
IFN-γ, relative inhibition of cytokine release ([3]; CBD 10 mg/kg): 0.00
IL-1β, relative inhibition of cytokine release ([3]; CBD 10 mg/kg): 0.34
IL-6, relative inhibition of cytokine release ([3]; CBD 10 mg/kg): 0.14
IL-12(p70), relative inhibition of cytokine release ([3]; CBD 10 mg/kg): 0.00
TNF-α, relative inhibition of cytokine release ([3]; CBD 10 mg/kg): 0.00
Relative inhibition of IL-6 release in vivo ([3]; CBD 25 mg/kg alone): 0.03
IL-6, relative inhibition of cytokine release ([3]; CBD 25 mg/kg): 0.03
IL-1β, relative inhibition of cytokine release (BALF) [4]: 0.03
MCP-1, relative inhibition of cytokine release (BALF) [4]: 0.07
TNF-α, relative inhibition of cytokine release (BALF) [4]: 0.23
CXCL-1, relative inhibition of cytokine release (BALF) [4]: 0.14
Relative reduction in white blood cell counts: Neutrophil [5]: 0.25
Relative reduction in white blood cell counts: WBC [5]: 0.27
Relative reduction in lesion score ([6]; CBD 1 mg/kg): 0.18
Relative reduction in lesion score [6, 11]: 0.29
IL-6, relative inhibition of cytokine release (BALF) [7]: 0.15
